{"source": "patent US20120270917A1", "about": "(The Trustees of the University of Pennsylvania, priority 2009, published 2012)", "key": {"AM2 (S31N)": {"molecular_target": "AM2 (S31N) (Influenza A virus, UniProt P0DOF5, S31N)", "assay_type": "cell-based"}, "AM2 (V27A)": {"molecular_target": "AM2 (V27A) (Influenza A virus, UniProt P0DOF5, V27A)", "assay_type": "cell-based"}}, "note": "Where a name gives a salt, the structure may show the parent alone.", "data": [{"molecule": "NC12CC3CC(CC(C3)C1)C2", "note": "[Amantadine, reference compound]", "values": [{"measurement": "S31N % of inhibition by 100 μM for 2 min", "setting": "AM2 (S31N)", "value": "34.7 ± 1.6", "unit": "%"}]}, {"molecule": "NC12CC3CC(C1)CC(O)(C3)C2", "note": "[Compound 38]", "values": [{"measurement": "AM2 (S31N) % inhibition at 100 uM", "setting": "AM2 (S31N)", "value": "38 (20%)"}]}, {"molecule": "N=C(N)NC12CC3CC(CC(C3)C1)C2", "note": "[Compound 39, 1-(adamantyl)guanidine]", "values": [{"measurement": "AM2 (S31N) % inhibition at 100 uM", "setting": "AM2 (S31N)", "value": "39 (0%)"}]}, {"molecule": "CC(NC(=N)N)C12CC3CC(CC(C3)C1)C2", "note": "(centres unmarked) [Compound 40]", "values": [{"measurement": "AM2 (S31N) % inhibition at 100 uM", "setting": "AM2 (S31N)", "value": "40 (0%)"}]}, {"molecule": "Cl.Cl.N=C(N)NC(=N)NC12CC3CC(CC(C3)C1)C2", "note": "[Compound 41]", "values": [{"measurement": "AM2 (S31N) % inhibition at 100 uM", "setting": "AM2 (S31N)", "value": "41 (0%)"}]}, {"molecule": "NOC12CC3CC(CC(C3)C1)C2", "note": "[Compound 42, O-adamantylhydroxylamine]", "values": [{"measurement": "AM2 (S31N) % inhibition at 100 uM", "setting": "AM2 (S31N)", "value": "42 (15%)"}]}, {"molecule": "Cc1nc[nH]c1/C=N/OC12CC3CC(CC(C3)C1)C2", "note": "[Compound 43, 5-Methyl-3H-imidazole-4-carbaldehyde O-adamantan-1-yl-oxime]", "values": [{"measurement": "AM2 (S31N) % inhibition at 100 uM", "setting": "AM2 (S31N)", "value": "43 (10%)"}]}, {"molecule": "N=C(N)C12CC3CC(CC(C3)C1)C2", "note": "[Compound 44, Adamantane amidine hydrochloride]", "values": [{"measurement": "AM2 (S31N) % inhibition at 100 uM", "setting": "AM2 (S31N)", "value": "44 (31.5%)"}]}, {"molecule": "NC1CSC2(SC1)C1CC3CC(C1)CC2C3", "note": "(centres unmarked) [Compound 45]", "values": [{"measurement": "AM2 (S31N) % inhibition at 100 uM", "setting": "AM2 (S31N)", "value": "45 (0%)"}]}, {"molecule": "N=C(NO)C12CC3CC(CC(C3)C1)C2", "note": "[Compound 46, N-hydroxyadamantanecarboximidamide]", "values": [{"measurement": "AM2 (S31N) % inhibition at 100 uM", "setting": "AM2 (S31N)", "value": "46 (0%)"}]}, {"molecule": "C1NC2CC3CC1CC(C3)C2.Cl", "note": "[Compound 47, 4-Azatricyclo[4.3.1.1^3,8]undecan hydrochloride]", "values": [{"measurement": "AM2 (S31N) % inhibition at 100 uM", "setting": "AM2 (S31N)", "value": "47 (8%)"}]}, {"molecule": "NC(=O)C12CC3CC(CC(C3)C1)C2", "note": "[Compound 48]", "values": [{"measurement": "AM2 (S31N) % inhibition at 100 uM", "setting": "AM2 (S31N)", "value": "48 (7.3%)"}]}, {"molecule": "O=CC12CC3CC(CC(C3)C1)C2", "note": "[Compound 49, 1-adamantanecarboaldehyde]", "values": [{"measurement": "AM2 (S31N) % inhibition at 100 uM", "setting": "AM2 (S31N)", "value": "49 (11%)"}]}, {"molecule": "O=C1C2CC3CC(C2)CC1C3", "note": "[Compound 50]", "values": [{"measurement": "AM2 (S31N) % inhibition at 100 uM", "setting": "AM2 (S31N)", "value": "50 (0%)"}]}, {"molecule": "O=C1C2CC3CC1CC(C2)C3=O", "note": "[Compound 52, 2,6-diadamantone]", "values": [{"measurement": "AM2 (S31N) % inhibition at 100 uM", "setting": "AM2 (S31N)", "value": "52 (0%)"}]}, {"molecule": "OC1(C(F)(F)F)C2CC3CC(C2)CC1C3", "note": "(centres unmarked) [Compound 53, 2-trifluoromethyl-2-adamantol]", "values": [{"measurement": "AM2 (S31N) % inhibition at 100 uM", "setting": "AM2 (S31N)", "value": "53 (14%)"}]}, {"molecule": "O=[N+]([O-])C12CC3CC(CC(C3)C1)C2", "note": "[Compound 54, 1-nitroadamantane]", "values": [{"measurement": "AM2 (S31N) % inhibition at 100 uM", "setting": "AM2 (S31N)", "value": "54 (24%)"}]}, {"molecule": "Cl.NC1C[C@@H]2C[C@@H]3CC1[C@H](C2)C3", "note": "(stereo partly drawn) [Compound S1, (2S,3aS,5R)-octahydro-1H-2,5-methanoinden-7-aminium chloride]", "values": [{"measurement": "AM2 (V27A) % inhibition at μM", "setting": "AM2 (V27A)", "value": 25.5, "unit": "%"}]}, {"molecule": "Cl.NC12CC3CCC(CC(C3)C1)C2", "note": "[Compound S2, tricyclo[4.3.1.13,8]undecan-1-aminium chloride]", "values": [{"measurement": "AM2 (S31N) % inhibition at μM", "setting": "AM2 (S31N)", "value": 23.7, "unit": "%"}, {"measurement": "AM2 (V27A) % inhibition at μM", "setting": "AM2 (V27A)", "value": 13.6, "unit": "%"}]}, {"molecule": "O=[N+]([O-])C1C2CC3CC(C2)CC1C3", "note": "(centres unmarked) [Compound S3]", "values": [{"measurement": "AM2 (S31N) % inhibition at μM", "setting": "AM2 (S31N)", "value": 12.4, "unit": "%"}, {"measurement": "AM2 (V27A) % inhibition at μM", "setting": "AM2 (V27A)", "value": 7.4, "unit": "%"}]}, {"molecule": "CC1(O)C2CC3CC(C2)CC1C3", "note": "(centres unmarked) [Compound S4]", "values": [{"measurement": "AM2 (S31N) % inhibition at μM", "setting": "AM2 (S31N)", "value": 10.6, "unit": "%"}, {"measurement": "AM2 (V27A) % inhibition at μM", "setting": "AM2 (V27A)", "value": 10.9, "unit": "%"}]}, {"molecule": "CC1(N)C2CC3CC(C2)CC1C3", "note": "(centres unmarked) [Compound S5]", "values": [{"measurement": "AM2 (S31N) % inhibition at μM", "setting": "AM2 (S31N)", "value": 13.8, "unit": "%"}, {"measurement": "AM2 (V27A) % inhibition at μM", "setting": "AM2 (V27A)", "value": 7.2, "unit": "%"}]}, {"molecule": "NC1(C(F)(F)F)C2CC3CC(C2)CC1C3", "note": "(centres unmarked) [Compound S6]", "values": [{"measurement": "AM2 (S31N) % inhibition at μM", "setting": "AM2 (S31N)", "value": 13.7, "unit": "%"}, {"measurement": "AM2 (V27A) % inhibition at μM", "setting": "AM2 (V27A)", "value": 1.5, "unit": "%"}]}, {"molecule": "NS(=O)(=O)NC1C2CC3CC(C2)CC1C3", "note": "(centres unmarked) [Compound S7]", "values": [{"measurement": "AM2 (S31N) % inhibition at μM", "setting": "AM2 (S31N)", "value": 3.8, "unit": "%"}]}, {"molecule": "OC1(C(F)(F)F)C2CC3CC(C2)CC1C3", "note": "(centres unmarked) [Compound S8]", "values": [{"measurement": "AM2 (S31N) % inhibition at μM", "setting": "AM2 (S31N)", "value": 14.0, "unit": "%"}, {"measurement": "AM2 (V27A) % inhibition at μM", "setting": "AM2 (V27A)", "value": 10.6, "unit": "%"}]}, {"molecule": "O=[N+]([O-])C12CC3CC(CC(C3)C1)C2", "note": "[Compound S9]", "values": [{"measurement": "AM2 (S31N) % inhibition at μM", "setting": "AM2 (S31N)", "value": 24.0, "unit": "%"}, {"measurement": "AM2 (V27A) % inhibition at μM", "setting": "AM2 (V27A)", "value": 19.9, "unit": "%"}]}, {"molecule": "Cl.NC12CCC3CC(CC(C3)C1)C2", "note": "[Compound S12]", "values": [{"measurement": "AM2 (S31N) % inhibition at μM", "setting": "AM2 (S31N)", "value": 32.8, "unit": "%"}, {"measurement": "AM2 (V27A) % inhibition at μM", "setting": "AM2 (V27A)", "value": 13.3, "unit": "%"}]}, {"molecule": "O=C1C2CC3CC(C2)CC1C3", "note": "[Compound S13]", "values": [{"measurement": "AM2 (S31N) % inhibition at μM", "setting": "AM2 (S31N)", "value": 0, "unit": "%"}, {"measurement": "AM2 (V27A) % inhibition at μM", "setting": "AM2 (V27A)", "value": 0, "unit": "%"}]}, {"molecule": "Cl.NC1C2CC3CC(C2)CC1C3", "note": "(centres unmarked) [Compound S14]", "values": [{"measurement": "AM2 (S31N) % inhibition at μM", "setting": "AM2 (S31N)", "value": 18.2, "unit": "%"}, {"measurement": "AM2 (V27A) % inhibition at μM", "setting": "AM2 (V27A)", "value": 0, "unit": "%"}]}, {"molecule": "Cl.NC1CCC2(CC1)C1CC3CC(C1)CC2C3", "note": "(centres unmarked) [Compound S15, (1r, 3r,5r,7r)-spiro[adamantane-2,1′-cyclohexan]-4′-aminium chloride]", "values": [{"measurement": "V27A % of inhibition by 100 μM for 2 min", "setting": "AM2 (V27A)", "value": "94.5 ± 0.4", "unit": "%"}]}, {"molecule": "CC(N)C12CC3CC(CC(C3)C1)C2", "note": "(centres unmarked) [Rimantadine, reference compound]", "values": [{"measurement": "S31N % of inhibition by 100 μM for 2 min", "setting": "AM2 (S31N)", "value": "13.3 ± 1.8", "unit": "%"}]}]}
